Measured values: the supplement of paper PMC10307832

Key:
Assay in all cases: relative viability (nuclei count vs DMSO), 5 days (fraction); higher = more cells survive
[1] = compound: C1CC(C2=C(C1)C3=C(N2)C=CC(=C3)Cl)C(=O)N [Selisistat] + Nc1ncn([C@H]2C[C@H](O)[C@@H](CO)O2)c(=O)n1 [Decitabine] (partner 2 µM)
Outline: (§1)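 Relative viability equals treated-well nuclei counts divided by vehicle-well nuclei counts. Counts came from 4× images of lung cancer cell lines grown in 1536-well plates for 5 days after pin-tool dosing on the day after seeding. Dosing used one drug alone or a fixed anchor-drug dose plus five library-drug doses (not always all listed) in √10 steps, and values are medians of duplicate plates.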

[2] = compound: c1ccc2c(CCNc3ccc(Nc4ccncc4)cc3)c[nH]c2c1 [Serdemetan] + Cc1nc(NC(=O)N2CCC[C@H]2C(N)=O)sc1-c1ccnc(C(C)(C)C(F)(F)F)c1 [Alpelisib] (partner 2 µM)
Outline: as §1

[3] = compound: C1CC(C2=C(C1)C3=C(N2)C=CC(=C3)Cl)C(=O)N [Selisistat] + CC(=O)c1c(C)c2cnc(Nc3ccc(N4CCNCC4)cn3)nc2n(C2CCCC2)c1=O [Palbociclib] (partner 0.5 µM)
Outline: as §1

[4] = compound: C1CC(C2=C(C1)C3=C(N2)C=CC(=C3)Cl)C(=O)N [Selisistat] + Cc1nc(Nc2ncc(C(=O)Nc3c(C)cccc3Cl)s2)cc(N2CCN(CCO)CC2)n1 [Dasatinib] (partner 0.075 µM)
Outline: as §1

UMC-11 was tested, and the relative viability ([1]; first compound 0.4 µM) was 0.604, the relative viability ([1]; first compound 1.265 µM) was 0.688 and the relative viability ([1]; first compound 4 µM) was 0.646. For the same cell line, the relative viability ([1]; first compound 12.65 µM) was 0.676, the relative viability ([1]; first compound 40 µM) was 0.637 and the relative viability ([2]; first compound 0.04 µM) was 0.914. The relative viability ([2]; first compound 0.1265 µM) was 0.988, the relative viability ([2]; first compound 0.4 µM) was 1.01 and the relative viability ([2]; first compound 1.265 µM) was 0.751. It also gave a relative viability ([2]; first compound 4 µM) of 0.769, a relative viability ([3]; first compound 0.4 µM) of 0.348 and a relative viability ([3]; first compound 1.265 µM) of 0.34. It also gave a relative viability ([3]; first compound 4 µM) of 0.299, a relative viability ([3]; first compound 12.65 µM) of 0.319 and a relative viability ([3]; first compound 40 µM) of 0.349. It also gave a relative viability ([4]; first compound 0.4 µM) of 0.434, a relative viability ([4]; first compound 1.265 µM) of 0.477 and a relative viability ([4]; first compound 4 µM) of 0.521. For the same cell line, the relative viability ([4]; first compound 12.65 µM) was 0.476 and the relative viability ([4]; first compound 40 µM) was 0.559.
